PubChem BioAssay AID2060512 (Molecular Pharmacology Branch, DTP, NCI, 2025)

Tested on: 186277-243-T-J2-PDC complex spheroid viability
Assay: Anticancer human tumor 186277-243-T-J2-PDC patient-derived colon adenocarcinoma cell line growth inhibition [GQUAD]
Conditions: for IC50: curve of first compound; for viability, T/C: stronger effect = lower value
Method in brief: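 Multi-cell-type spheroids of tumor cells with HUVEC and mesenchymal stem cells, treated with drug combinations. Concentrations descend in half-log steps from near clinical Cmax, or from 10 microM where Cmax is unknown; viability read-out.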

[1] = second compound 0.0316 µM, first compound 0.0316 µM
[2] = second compound 0.0316 µM, first compound 0.1 µM
[3] = second compound 0.0316 µM, first compound 0.316 µM
[4] = second compound 0.0316 µM, first compound 1 µM
[5] = second compound 0.0316 µM, first compound 3.16 µM
[6] = second compound 0.0316 µM, first compound 10 µM
[7] = second compound 0.1 µM, first compound 0.0316 µM
[8] = second compound 0.1 µM, first compound 0.1 µM
[9] = second compound 0.1 µM, first compound 0.316 µM
[10] = second compound 0.1 µM, first compound 1 µM
[11] = second compound 0.1 µM, first compound 3.16 µM
[12] = second compound 0.1 µM, first compound 10 µM
[13] = second compound 0.316 µM, first compound 0.0316 µM
[14] = second compound 0.316 µM, first compound 0.1 µM
[15] = second compound 0.316 µM, first compound 0.316 µM
[16] = second compound 0.316 µM, first compound 1 µM
[17] = second compound 0.316 µM, first compound 3.16 µM
[18] = second compound 0.316 µM, first compound 10 µM
[19] = second compound 1 µM, first compound 0.0316 µM
[20] = second compound 1 µM, first compound 0.1 µM
[21] = second compound 1 µM, first compound 0.316 µM
[22] = second compound 1 µM, first compound 1 µM
[23] = second compound 1 µM, first compound 3.16 µM
[24] = second compound 1 µM, first compound 10 µM
[25] = second compound 3.16 µM, first compound 0.0316 µM
[26] = second compound 3.16 µM, first compound 0.1 µM
[27] = second compound 3.16 µM, first compound 0.316 µM
[28] = second compound 3.16 µM, first compound 1 µM
[29] = second compound 3.16 µM, first compound 3.16 µM
[30] = second compound 3.16 µM, first compound 10 µM
[31] = second compound 10 µM, first compound 0.0316 µM
[32] = second compound 10 µM, first compound 0.1 µM
[33] = second compound 10 µM, first compound 0.316 µM
[34] = second compound 10 µM, first compound 1 µM
[35] = second compound 10 µM, first compound 3.16 µM
[36] = second compound 10 µM, first compound 10 µM
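Further: spheroids exposed to drugs for 7 days.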
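Wherever viability, T/C is given: 100% = DMSO vehicle control viability.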

COc1ncnc(C2CC2)c1-c1ncc2cnn(Cc3ccc(-c4nc(C(F)(F)F)cn4C(C)C)cc3)c2n1 + Cc1[nH]c2ccc(F)cc2c1-c1nc2c3cccnc3c3ncccc3c2[nH]1
IC50 (second compound 0.0316 µM): > 10 µM | IC50 (second compound 0.1 µM): > 10 µM | IC50 (second compound 0.316 µM): > 10 µM | IC50 (second compound 1 µM): > 10 µM | IC50 (second compound 3.16 µM): > 10 µM | IC50 (second compound 10 µM): > 10 µM | viability, T/C [1]: 116% | viability, T/C [2]: 91.6% | viability, T/C [3]: 95.1% | viability, T/C [4]: 84.4% | viability, T/C [5]: 111% | viability, T/C [6]: 97.4% | viability, T/C [7]: 87.5% | viability, T/C [8]: 98.7% | viability, T/C [9]: 99.8% | viability, T/C [10]: 95.2% | viability, T/C [11]: 112% | viability, T/C [12]: 86.2% | viability, T/C [13]: 104% | viability, T/C [14]: 95.7% | viability, T/C [15]: 94.2% | viability, T/C [16]: 111% | viability, T/C [17]: 108% | viability, T/C [18]: 96% | viability, T/C [19]: 92.5% | viability, T/C [20]: 105% | viability, T/C [21]: 107% | viability, T/C [22]: 93.9% | viability, T/C [23]: 116% | viability, T/C [24]: 104% | viability, T/C [25]: 103% | viability, T/C [26]: 115% | viability, T/C [27]: 97.3% | viability, T/C [28]: 102% | viability, T/C [29]: 99.9% | viability, T/C [30]: 89.9% | viability, T/C [31]: 105% | viability, T/C [32]: 101% | viability, T/C [33]: 99.1% | viability, T/C [34]: 94.4% | viability, T/C [35]: 113% | viability, T/C [36]: 97%

Cc1cccc(N(C)C(=O)C2C(O)CCN2c2nc(C)cc(C(F)(F)F)c2C#N)c1 (stereo unspecified) + CN(C)c1ccc(Nc2c3ccc(NC(=O)CCN4CCCC4)cc3nc3cc(NC(=O)CCN4CCCC4)ccc23)cc1
IC50 (second compound 0.0316 µM): > 10 µM | IC50 (second compound 0.1 µM): > 10 µM | IC50 (second compound 0.316 µM): > 10 µM | IC50 (second compound 1 µM): > 10 µM | IC50 (second compound 3.16 µM): > 10 µM | IC50 (second compound 10 µM): > 10 µM | viability, T/C [1]: 88.8% | viability, T/C [2]: 99.5% | viability, T/C [3]: 115% | viability, T/C [4]: 109% | viability, T/C [5]: 105% | viability, T/C [6]: 100% | viability, T/C [7]: 94.1% | viability, T/C [8]: 105% | viability, T/C [9]: 94.9% | viability, T/C [10]: 91.8% | viability, T/C [11]: 108% | viability, T/C [12]: 88.7% | viability, T/C [13]: 81% | viability, T/C [14]: 107% | viability, T/C [15]: 98.9% | viability, T/C [16]: 97.6% | viability, T/C [17]: 102% | viability, T/C [18]: 104% | viability, T/C [19]: 97.1% | viability, T/C [20]: 93.2% | viability, T/C [21]: 98.9% | viability, T/C [22]: 101% | viability, T/C [23]: 102% | viability, T/C [24]: 114% | viability, T/C [25]: 86.4% | viability, T/C [26]: 91.7% | viability, T/C [27]: 106% | viability, T/C [28]: 118% | viability, T/C [29]: 83% | viability, T/C [30]: 110% | viability, T/C [31]: 88.6% | viability, T/C [32]: 104% | viability, T/C [33]: 93.7% | viability, T/C [34]: 120% | viability, T/C [35]: 98.2% | viability, T/C [36]: 75.6%

CC(=O)O[C@H]1C(=O)[C@@]2(C)[C@H]([C@H](OC(=O)c3ccccc3)[C@]3(O)C[C@H](OC(=O)[C@H](O)[C@@H](NC(=O)c4ccccc4)c4ccccc4)C(C)=C1C3(C)C)[C@]1(OC(C)=O)CO[C@@H]1C[C@@H]2O + Cc1cnc(CNC(=O)c2c(=O)c3ccc(N4CCCN(C)CC4)nc3n3c2sc2ccccc23)cn1
IC50 (second compound 0.0316 µM): < 0.0316 µM | IC50 (second compound 0.1 µM): < 0.0316 µM | IC50 (second compound 0.316 µM): < 0.0316 µM | IC50 (second compound 1 µM): < 0.0316 µM | IC50 (second compound 3.16 µM): < 0.0316 µM | IC50 (second compound 10 µM): < 0.0316 µM | viability, T/C [1]: 25.6% | viability, T/C [2]: 11.8% | viability, T/C [3]: 7.83% | viability, T/C [4]: 7.31% | viability, T/C [5]: 7.28% | viability, T/C [6]: 7.34% | viability, T/C [7]: 26.4% | viability, T/C [8]: 18.3% | viability, T/C [9]: 11.9% | viability, T/C [10]: 11.9% | viability, T/C [11]: 11% | viability, T/C [12]: 10.4% | viability, T/C [13]: 32.6% | viability, T/C [14]: 18.1% | viability, T/C [15]: 18.1% | viability, T/C [16]: 20.5% | viability, T/C [17]: 17% | viability, T/C [18]: 16.6% | viability, T/C [19]: 29.4% | viability, T/C [20]: 29.9% | viability, T/C [21]: 23.1% | viability, T/C [22]: 25.1% | viability, T/C [23]: 23.8% | viability, T/C [24]: 21.5% | viability, T/C [25]: 24.4% | viability, T/C [26]: 27% | viability, T/C [27]: 24% | viability, T/C [28]: 23.5% | viability, T/C [29]: 25.5% | viability, T/C [30]: 22.3% | viability, T/C [31]: 29.8% | viability, T/C [32]: 25.5% | viability, T/C [33]: 26.1% | viability, T/C [34]: 25.2% | viability, T/C [35]: 24.8% | viability, T/C [36]: 23.7%
